Results published in ChEMBL document CHEMBL1137228, “Benzoxepin-derived estrogen receptor modulators: a novel molecular scaffold for the estrogen receptor” (J Med Chem, 2004).

The compounds below were run against T1, Estrogen receptor (Homo sapiens, UniProt Q92731+P03372) (assay: Inhibition of estrogen receptor positive human breast carcinoma (MCF-7) cell proliferation).
Format: functional

In order of rising IC50:
1. c1ccc(C2=C(c3ccc(OCCN4CCCC4)cc3)c3ccccc3OCC2)cc1  6.1 µM
2. c1ccc(C2=C(c3ccc(OCCN4CCOCC4)cc3)c3ccccc3OCC2)cc1  7.6 µM
3. c1ccc(C2=C(c3ccc(OCCN4CCCCC4)cc3)c3ccccc3OCC2)cc1  10.6 µM
4. COc1ccc(C2=C(c3ccc(OCCN(C)C)cc3)c3ccccc3OCC2)cc1  11.1 µM
5. COc1ccccc1C1=C(c2ccc(OCCN(C)C)cc2)c2ccccc2OCC1  11.7 µM
6. CCN(CC)CCOc1ccc(C2=C(c3ccccc3)CCOc3ccccc32)cc1  14.2 µM
7. Cc1ccc(C2=C(c3ccc(OCCN(C)C)cc3)c3ccccc3OCC2)cc1  15.7 µM
8. CN(C)CCOc1ccc(C2=C(c3ccccc3)CCOc3ccccc32)cc1  16.2 µM
9. CN(C)CCOc1ccc(C2=C(c3ccc(Cl)cc3)CCOc3ccccc32)cc1  18.3 µM
10. Cc1cccc(C2=C(c3ccc(OCCN(C)C)cc3)c3ccccc3OCC2)c1  33.6 µM
11. COc1cccc(C2=C(c3ccc(OCCN(C)C)cc3)c3ccccc3OCC2)c1  56.6 µM
12. CN(C)CCOc1ccc(C2=C(c3cccc([N+](=O)[O-])c3)CCOc3ccccc32)cc1  64.6 µM
13. CN(C)CCOc1ccc(C2=C(c3ccc(C#N)cc3)CCOc3ccccc32)cc1  74.3 µM

The compounds below were run against T1, Estrogen receptor (assay: Binding affinity for estrogen receptor of human breast carcinoma (MCF-7) cell line).

CN(C)CCOc1ccc(C2=C(c3ccccc3)CCOc3ccccc32)cc1 was tested, and the Ki was 3.2 µM.

These compounds were tested against T1, Estrogen receptor (assay: Binding affinity for estrogen receptor of human breast carcinoma (MCF-7) cell line; 828 +/- 106 […]).

Compound Cc1ccc(C2=C(c3ccc(OCCN(C)C)cc3)c3ccccc3OCC2)cc1 has a Ki of 0.828 µM.
